Here are results for four compounds from patent US5006534A, “Substituted ethers, thioethers and amines for use as lipoxygenase inhibitors” (Bayer Aktiengesellschaft, priority 1985, dated 1991).

The test system of one test is mouse ear inflammation. Nature of the test: mouse ear inflammation model. Format: in vivo.
Another test deals with lipoxygenase. Description: LTB4 release on polymorphonuclear rat leucocytes (PMN) by RP-HPLC after Ca ionophor, as a measure of lipoxygenase inhibition. Format: cell-based. As for the experimental part: The release of leukotriene B4 (LTB4) was determined on polymorphonuclear rat leucocytes (PMN) by means of reverse phase high performance liquid chromatography, after addition of substances and Ca ionophor, in accordance with the method of Borgeat, P. et al., Proc. Nat. Acad. Sci., 76, 2148-2152 (1979) as a measure of the lipoxygenase inhibition.

In the case of `CCCCCC(OC(C)=O)c1cccc(COc2cccc3cccnc23)c1` (centres unmarked) [Example 38, 1-[3-(Quinolin-8-yloxymethyl)phenyl]hexyl acetate], the “Inhibition of inflammation at 2 mg/ear” value in the test with mouse ear inflammation was 75.0%. Besides, the “LO inhibition IC50 values” with lipoxygenase was 0.14 µg/mL.

Regarding `CCCCCCC(OC(C)=O)c1cccc(COc2cccc3cccnc23)c1` (centres unmarked) [Example 39, 1-[3-(Quinolin-8-yloxymethyl)phenyl]heptyl acetate], the “Inhibition of inflammation at 2 mg/ear” value in the test on mouse ear inflammation worked out at 72.0%. In the test on lipoxygenase, the “LO inhibition IC50 values” is 0.26 µg/mL.

`CCCCC(O)c1cccc(COc2cccc3cccnc23)c1` (centres unmarked) [Example 55, 1-[3-(Quinolin-8-yloxymethyl)phenyl]pentanol]: in the test on mouse ear inflammation, the “Inhibition of inflammation at 2 mg/ear” value is 70.0%. Besides, the “LO inhibition IC50 values” in the test with lipoxygenase amounted to 0.083 µg/mL.

As to `CCCCCCC(O)c1cccc(COc2cccc3cccnc23)c1` (centres unmarked) [Example 57, 1-[3-(Quinolin-8-yloxymethyl)phenyl]heptanol], the “Inhibition of inflammation at 2 mg/ear” value in the test with mouse ear inflammation was 86.1%. Further, in the test with lipoxygenase, the “LO inhibition IC50 values” was found to be 0.23 µg/mL.
